Measurements reported in ChEMBL document CHEMBL5113453, “Design, synthesis, and biological evaluation of a new series of pyrazole derivatives: Discovery of potent and selective JNK3 kinase inhibitors” (Bioorg Med Chem, 2022).

Columns and labels:
[1] = tested on: HCT-116; experiment: Antiproliferative activity against human HCT-116 cells measured after 48 hrs by SRB assay; type: functional, cell-based; conditions: for IC50: HCT-116, 48 h; for TGI: HCT-116, time 48 hrs
[2] = tested on: HOP-62; experiment: Antiproliferative activity against human HOP-62 cells measured after 48 hrs by SRB assay; type: functional, cell-based; conditions: for IC50: HOP-62, 48 h; for TGI: HOP-62, time 48 hrs
[3] = tested on: HCT-15; experiment: Antiproliferative activity against human HCT-15 cells measured after 48 hrs by SRB assay; type: functional, cell-based; conditions: for IC50: HCT-15, 48 h; for TGI: HCT-15, time 48 hrs
[4] = tested on: MOLT-4; experiment: Antiproliferative activity against human MOLT-4 cells measured after 48 hrs by SRB assay; type: functional, cell-based; conditions: for IC50: MOLT-4, 48 h; for TGI: MOLT-4, time 48 hrs
[5] = tested on: NCI-H522; experiment: Antiproliferative activity against human NCI-H522 cells measured after 48 hrs by SRB assay; type: functional, cell-based; conditions: for IC50: NCI-H522, 48 h; for TGI: NCI-H522, time 48 hrs
[6] = tested on: UACC-257; experiment: Antiproliferative activity against human UACC-257 cells measured after 48 hrs by SRB assay; type: functional, cell-based; conditions: for IC50: UACC-257, 48 h; for TGI: UACC-257, time 48 hrs
[7] = tested on: SW-620; experiment: Antiproliferative activity against human SW-620 cells measured after 48 hrs by SRB assay; type: functional, cell-based; conditions: for IC50: SW-620, 48 h; for TGI: SW-620, time 48 hrs
[8] = tested on: CAKI-1; experiment: Antiproliferative activity against human CAKI-1 cells measured after 48 hrs by SRB assay; type: functional, cell-based; conditions: for IC50: CAKI-1, 48 h; for TGI: CAKI-1, time 48 hrs
[9] = tested on: A549; experiment: Antiproliferative activity against human A549 cells measured after 48 hrs by SRB assay; type: functional, cell-based; conditions: for IC50: A549, 48 h; for TGI: A549, time 48 hrs
[10] = tested on: Hs-578T; experiment: Antiproliferative activity against human Hs-578T cells measured after 48 hrs by SRB assay; type: functional, cell-based; conditions: for IC50: 48 h; for TGI: time 48 hrs
[11] = tested on: RXF 393; experiment: Antiproliferative activity against human RXF 393 cells measured after 48 hrs by SRB assay; type: functional, cell-based; conditions: for IC50: RXF 393, 48 h; for TGI: RXF 393, time 48 hrs
[12] = tested on: OVCAR-8; experiment: Antiproliferative activity against human OVCAR-8 cells measured after 48 hrs by SRB assay; type: functional, cell-based; conditions: for IC50: OVCAR-8, 48 h; for TGI: OVCAR-8, time 48 hrs
[13] = tested on: EKVX; experiment: Antiproliferative activity against human EKVX cells measured after 48 hrs by SRB assay; type: functional, cell-based; conditions: for IC50: 48 h; for TGI: time 48 hrs
[14] = tested on: IGROV-1; experiment: Antiproliferative activity against human IGROV-1 cells measured after 48 hrs by SRB assay; type: functional, cell-based; conditions: for IC50: IGROV-1, 48 h; for TGI: IGROV-1, time 48 hrs
[15] = tested on: NCI-H322M; experiment: Antiproliferative activity against human NCI-H322M cells measured after 48 hrs by SRB assay; type: functional, cell-based; conditions: for IC50: 48 h; for TGI: time 48 hrs
[16] = tested on: NCI-H23; experiment: Antiproliferative activity against human NCI-H23 cells measured after 48 hrs by SRB assay; type: functional, cell-based; conditions: for IC50: NCI-H23, 48 h; for TGI: NCI-H23, time 48 hrs
[17] = tested on: SF-268; experiment: Antiproliferative activity against human SF-268 cells measured after 48 hrs by SRB assay; type: functional, cell-based; conditions: for IC50: SF-268, 48 h; for TGI: SF-268, time 48 hrs
[18] = tested on: K562; experiment: Antiproliferative activity against human K562 cells measured after 48 hrs by SRB assay; type: functional, cell-based; conditions: for IC50: K562, 48 h; for TGI: K562, time 48 hrs
[19] = tested on: ACHN; experiment: Antiproliferative activity against human ACHN cells measured after 48 hrs by SRB assay; type: functional, cell-based; conditions: for IC50: 48 h; for TGI: time 48 hrs
[20] = tested on: SK-MEL-5; experiment: Antiproliferative activity against human SK-MEL-5 cells measured after 48 hrs by SRB assay; type: functional, cell-based; conditions: for IC50: SK-MEL-5, 48 h; for TGI: SK-MEL-5, time 48 hrs
[21] = tested on: PC-3; experiment: Antiproliferative activity against human PC-3 cells measured after 48 hrs by SRB assay; type: functional, cell-based; conditions: for IC50: PC-3, 48 h; for TGI: PC-3, time 48 hrs
[22] = tested on: RPMI-8226; experiment: Induction of apoptosis in human RPMI-8226 cells assessed as fold increase in caspase-3/7 activity at 5.47 uM; type: functional
[23] = target: T1, Mitogen-activated protein kinase 9 (Homo sapiens, UniProt P45984); experiment: Inhibition of JNK2-alpha-2 (unknown origin) at 1 uM relative to control
Target sequence in this assay (P45984 whole entry, looked up): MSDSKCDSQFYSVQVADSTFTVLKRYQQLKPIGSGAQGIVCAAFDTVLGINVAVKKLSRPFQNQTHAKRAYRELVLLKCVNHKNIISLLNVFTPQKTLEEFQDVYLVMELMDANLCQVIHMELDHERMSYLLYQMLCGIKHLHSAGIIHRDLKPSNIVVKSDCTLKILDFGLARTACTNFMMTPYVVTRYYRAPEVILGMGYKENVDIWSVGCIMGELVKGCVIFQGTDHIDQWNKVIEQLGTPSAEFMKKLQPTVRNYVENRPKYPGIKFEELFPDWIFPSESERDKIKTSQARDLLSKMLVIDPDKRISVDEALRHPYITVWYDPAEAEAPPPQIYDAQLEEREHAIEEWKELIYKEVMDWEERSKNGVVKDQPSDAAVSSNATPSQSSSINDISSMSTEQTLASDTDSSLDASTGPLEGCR

[24] = target: T2, Vascular endothelial growth factor receptor 3 (Homo sapiens, UniProt P35916); experiment: Inhibition of FLT4 (unknown origin)
T2 sequence (P35916 whole entry, the tested form may be a part): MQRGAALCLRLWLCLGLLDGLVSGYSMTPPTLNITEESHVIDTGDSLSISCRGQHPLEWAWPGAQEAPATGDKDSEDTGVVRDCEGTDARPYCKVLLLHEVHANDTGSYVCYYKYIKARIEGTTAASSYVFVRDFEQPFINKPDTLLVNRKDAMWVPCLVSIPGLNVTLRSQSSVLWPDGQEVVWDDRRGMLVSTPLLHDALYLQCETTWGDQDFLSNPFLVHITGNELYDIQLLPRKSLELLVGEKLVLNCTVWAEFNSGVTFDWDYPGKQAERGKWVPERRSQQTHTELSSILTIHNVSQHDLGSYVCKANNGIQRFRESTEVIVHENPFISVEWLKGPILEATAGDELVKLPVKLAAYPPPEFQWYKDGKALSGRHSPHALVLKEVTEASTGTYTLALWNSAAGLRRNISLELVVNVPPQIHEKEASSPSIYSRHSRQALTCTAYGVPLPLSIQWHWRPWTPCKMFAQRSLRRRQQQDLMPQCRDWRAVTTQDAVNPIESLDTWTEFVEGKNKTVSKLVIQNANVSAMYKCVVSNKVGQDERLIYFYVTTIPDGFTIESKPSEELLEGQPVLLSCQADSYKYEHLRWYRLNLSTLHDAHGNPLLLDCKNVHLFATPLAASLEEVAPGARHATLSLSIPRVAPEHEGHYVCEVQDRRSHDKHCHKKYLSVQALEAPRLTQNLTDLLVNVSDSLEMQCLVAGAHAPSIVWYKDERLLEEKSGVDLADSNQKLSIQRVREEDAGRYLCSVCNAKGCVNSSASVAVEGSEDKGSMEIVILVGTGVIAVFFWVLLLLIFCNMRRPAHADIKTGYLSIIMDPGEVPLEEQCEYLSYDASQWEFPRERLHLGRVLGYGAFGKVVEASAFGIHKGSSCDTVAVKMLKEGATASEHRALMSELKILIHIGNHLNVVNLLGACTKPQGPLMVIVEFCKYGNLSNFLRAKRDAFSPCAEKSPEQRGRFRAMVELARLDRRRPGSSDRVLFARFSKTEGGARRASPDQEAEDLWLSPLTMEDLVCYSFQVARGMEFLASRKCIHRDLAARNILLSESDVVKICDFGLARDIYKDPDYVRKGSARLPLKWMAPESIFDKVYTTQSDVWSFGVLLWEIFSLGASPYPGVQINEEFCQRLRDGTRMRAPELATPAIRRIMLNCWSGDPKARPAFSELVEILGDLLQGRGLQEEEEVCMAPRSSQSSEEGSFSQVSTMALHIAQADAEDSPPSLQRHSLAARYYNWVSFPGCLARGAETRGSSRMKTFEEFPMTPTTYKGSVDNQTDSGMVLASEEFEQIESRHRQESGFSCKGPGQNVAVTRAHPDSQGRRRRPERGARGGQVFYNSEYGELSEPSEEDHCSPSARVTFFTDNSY

[25] = target: T3, Mitogen-activated protein kinase 10 (Homo sapiens, UniProt P53779); experiment: Inhibition of JNK3 in human HEK293 cells transfected with JNK3-NanoLuc fusion vector measured after 1 hr by NanoBRET assay; type: cell-based
T3 sequence (P53779 whole entry, the tested form may be a part): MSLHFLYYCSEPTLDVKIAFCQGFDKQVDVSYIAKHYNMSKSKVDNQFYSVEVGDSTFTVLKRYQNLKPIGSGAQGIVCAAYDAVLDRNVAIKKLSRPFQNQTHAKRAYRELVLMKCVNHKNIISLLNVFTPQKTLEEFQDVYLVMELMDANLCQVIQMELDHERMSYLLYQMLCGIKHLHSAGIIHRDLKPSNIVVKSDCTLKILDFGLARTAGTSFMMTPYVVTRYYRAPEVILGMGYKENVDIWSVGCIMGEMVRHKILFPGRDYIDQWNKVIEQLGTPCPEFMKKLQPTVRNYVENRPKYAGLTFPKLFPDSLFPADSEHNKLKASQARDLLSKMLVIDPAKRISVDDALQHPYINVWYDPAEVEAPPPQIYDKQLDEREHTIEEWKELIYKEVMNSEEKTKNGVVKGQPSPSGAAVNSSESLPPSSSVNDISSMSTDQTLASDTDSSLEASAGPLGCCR

[26] = target: T2, Vascular endothelial growth factor receptor 3; experiment: Inhibition of FLT4 (unknown origin) at 1 uM relative to control
[27] = target: Cytochrome P450 2D6 (Homo sapiens, UniProt P10635); experiment: Inhibition of CYP2D6 (unknown origin) using EOMCC as a substrate; type: ADME
Chain of Cytochrome P450 2D6 (P10635 whole entry): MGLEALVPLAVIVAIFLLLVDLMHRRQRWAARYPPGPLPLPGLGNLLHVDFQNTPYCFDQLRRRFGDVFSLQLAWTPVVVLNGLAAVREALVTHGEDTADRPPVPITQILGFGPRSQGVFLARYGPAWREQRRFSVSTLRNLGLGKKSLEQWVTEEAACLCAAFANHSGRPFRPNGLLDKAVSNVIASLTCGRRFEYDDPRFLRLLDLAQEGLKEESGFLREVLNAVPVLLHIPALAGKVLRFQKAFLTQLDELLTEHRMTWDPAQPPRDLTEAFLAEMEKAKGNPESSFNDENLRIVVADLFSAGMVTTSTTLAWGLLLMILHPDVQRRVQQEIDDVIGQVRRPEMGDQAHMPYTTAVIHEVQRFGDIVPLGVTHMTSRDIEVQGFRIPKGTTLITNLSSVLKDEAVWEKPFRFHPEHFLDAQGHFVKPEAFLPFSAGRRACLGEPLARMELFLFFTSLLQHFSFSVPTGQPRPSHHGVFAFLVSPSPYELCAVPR

[28] = organism: Homo sapiens; experiment: Ratio IC50 for inhibition of FLT4 (unknown origin) over IC50 for JNK3 (unknown origin)
[29] = target: Voltage-gated inwardly rectifying potassium channel KCNH2 (Homo sapiens, UniProt Q12809); experiment: Inhibition of hERG measured by fluorescence polarization assay
[30] = tested on: MDA-MB-468; experiment: Antiproliferative activity against human MDA-MB-468 cells measured after 48 hrs by SRB assay; type: functional, cell-based; conditions: for IC50: MDA-MB-468, 48 h; for TGI: MDA-MB-468, time 48 hrs
[31] = tested on: Serine/threonine-protein kinase B-raf (Homo sapiens), P15056 [V600E]; experiment: Inhibition of B-RAF V600E mutant (unknown origin) at 1 uM relative to control
Chain of Serine/threonine-protein kinase B-raf (Homo sapiens), P15056 [V600E] (P15056 whole entry V600E): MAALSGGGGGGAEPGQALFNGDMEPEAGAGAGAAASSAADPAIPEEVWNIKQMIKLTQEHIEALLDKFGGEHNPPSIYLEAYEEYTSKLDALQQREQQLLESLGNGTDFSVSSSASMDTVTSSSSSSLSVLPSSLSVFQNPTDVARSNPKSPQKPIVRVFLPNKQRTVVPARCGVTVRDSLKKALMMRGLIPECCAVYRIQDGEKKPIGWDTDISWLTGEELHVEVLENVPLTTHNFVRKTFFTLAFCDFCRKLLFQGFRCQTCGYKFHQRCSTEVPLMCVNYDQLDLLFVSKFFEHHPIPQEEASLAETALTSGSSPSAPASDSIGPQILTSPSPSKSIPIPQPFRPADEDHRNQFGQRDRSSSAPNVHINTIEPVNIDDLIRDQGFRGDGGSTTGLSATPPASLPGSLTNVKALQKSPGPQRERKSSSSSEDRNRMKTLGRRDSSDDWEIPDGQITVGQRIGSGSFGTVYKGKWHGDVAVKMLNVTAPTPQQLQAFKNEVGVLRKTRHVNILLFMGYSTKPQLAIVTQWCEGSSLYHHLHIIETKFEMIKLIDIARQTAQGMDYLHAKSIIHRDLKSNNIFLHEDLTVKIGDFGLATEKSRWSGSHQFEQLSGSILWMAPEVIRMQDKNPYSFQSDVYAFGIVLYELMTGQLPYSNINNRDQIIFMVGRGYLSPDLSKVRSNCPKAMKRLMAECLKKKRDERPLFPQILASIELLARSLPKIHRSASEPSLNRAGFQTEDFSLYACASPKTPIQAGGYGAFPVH

[32] = target: T4, Mitogen-activated protein kinase 8 (Homo sapiens, UniProt P45983); experiment: Inhibition of JNK1-alpha-1 (unknown origin)
T4 sequence (P45983 whole entry): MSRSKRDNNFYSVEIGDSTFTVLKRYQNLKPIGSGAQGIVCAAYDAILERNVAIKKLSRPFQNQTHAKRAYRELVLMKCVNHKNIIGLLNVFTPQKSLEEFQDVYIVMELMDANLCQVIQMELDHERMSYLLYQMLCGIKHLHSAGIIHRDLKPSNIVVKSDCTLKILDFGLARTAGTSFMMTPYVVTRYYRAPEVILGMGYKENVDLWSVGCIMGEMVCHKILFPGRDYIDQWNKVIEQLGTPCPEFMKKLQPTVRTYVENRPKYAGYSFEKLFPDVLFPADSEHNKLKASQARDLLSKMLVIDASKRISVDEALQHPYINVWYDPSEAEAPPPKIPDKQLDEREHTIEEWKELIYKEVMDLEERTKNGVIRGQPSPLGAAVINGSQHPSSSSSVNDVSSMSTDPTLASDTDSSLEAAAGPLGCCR

[33] = target: Cytochrome P450 3A4 (Homo sapiens, UniProt P08684); experiment: Inhibition of CYP3A4 (unknown origin) using BOMCC as a substrate; type: ADME
Chain of Cytochrome P450 3A4 (P08684 whole entry): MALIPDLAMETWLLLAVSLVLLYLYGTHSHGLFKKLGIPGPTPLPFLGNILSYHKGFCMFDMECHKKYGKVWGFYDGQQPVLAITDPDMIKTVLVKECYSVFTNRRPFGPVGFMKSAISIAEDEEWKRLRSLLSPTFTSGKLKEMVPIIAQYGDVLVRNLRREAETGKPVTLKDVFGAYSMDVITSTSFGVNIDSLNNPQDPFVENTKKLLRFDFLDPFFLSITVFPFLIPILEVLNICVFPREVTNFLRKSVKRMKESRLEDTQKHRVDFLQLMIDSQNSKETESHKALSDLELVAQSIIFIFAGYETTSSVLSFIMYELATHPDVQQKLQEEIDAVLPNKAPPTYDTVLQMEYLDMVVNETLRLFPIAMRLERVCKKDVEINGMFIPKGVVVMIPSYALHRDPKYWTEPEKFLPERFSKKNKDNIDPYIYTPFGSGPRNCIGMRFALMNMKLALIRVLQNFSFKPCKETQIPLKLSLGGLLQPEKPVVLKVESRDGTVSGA

[34] = tested on: RPMI-8226; experiment: Induction of necrosis in human RPMI-8226 cells assessed as LDH release at 0.87 uM; type: functional
[35] = tested on: RPMI-8226; experiment: Induction of necrosis in human RPMI-8226 cells assessed as LDH release at 5.47 uM; type: functional
[36] = target: T1, Mitogen-activated protein kinase 9; experiment: Inhibition of JNK2-alpha-2 (unknown origin)
Target sequence in this assay (P45984 whole entry): as the sequence (P45984 whole entry, looked up) above

[37] = target: T4, Mitogen-activated protein kinase 8; experiment: Inhibition of JNK1-alpha-1 (unknown origin) at 1 uM relative to control
[38] = target: T3, Mitogen-activated protein kinase 10; experiment: Inhibition of JNK3 (unknown origin) at 1 uM relative to control

## O=C1c2ccccc2-c2n[nH]c3cccc1c23
[1]
  IC50: 44.6 µM
  TGI: > 100 µM
[2]
  IC50: 69.3 µM
  TGI: > 100 µM
[3]
  IC50: 8.04 µM
  TGI: > 100 µM
[4]
  IC50: 20.4 µM
  TGI: > 100 µM
[5]
  IC50: 12.2 µM
  TGI: 50.4 µM
[6]
  IC50: 29.5 µM
  TGI: > 100 µM
[7]
  IC50: 10.9 µM
  TGI: > 100 µM
[8]
  IC50: 3.56 µM
  TGI: 18.2 µM
[9]
  IC50: 14.9 µM
  TGI: > 100 µM
[10]
  IC50: 55.1 µM
  TGI: > 100 µM
[11]
  IC50: 20.8 µM
  TGI: > 100 µM
[12]
  IC50: 22 µM
  TGI: > 100 µM
[13]
  IC50: 20 µM
  TGI: > 100 µM
[14]
  IC50: 11.3 µM
  TGI: > 100 µM
[15]
  IC50: 24.9 µM
  TGI: > 100 µM
[16]
  IC50: 23.8 µM
  TGI: 58.1 µM
[17]
  IC50: 18.4 µM
  TGI: > 100 µM
[18]
  IC50: 48.6 µM
  TGI: > 100 µM
[19]
  IC50: 6.64 µM
  TGI: > 100 µM
[20]
  IC50: 14.6 µM
  TGI: 37.5 µM
[21]
  IC50: 23.3 µM
  TGI: > 100 µM

## O=C(NCCCNc1cc(-c2cn(-c3ccccc3)nc2-c2cccc(O)c2)ccn1)Nc1ccc(F)cc1
[22]
  fold change (FC): 2.75
[1]
  IC50: 1.62 µM
  TGI: 5.82 µM
[23]
  inhibition: 53%
[2]
  IC50: 3.24 µM
  TGI: 9.26 µM
[3]
  IC50: 0.94 µM
  TGI: 4.04 µM
[4]
  IC50: 1.25 µM
  TGI: 15.6 µM
[5]
  IC50: 4.03 µM
  TGI: 9.49 µM
[6]
  IC50: 3.07 µM
  TGI: 7.54 µM
[7]
  IC50: 3.04 µM
  TGI: 6.73 µM
[24]
  IC50: 0.791 µM
[25]
  IC50: 3.84 µM
[26]
  inhibition: 84%
[8]
  IC50: 2.04 µM
  TGI: 10.7 µM
[27]
  IC50: 5.54 µM
[9]
  IC50: 3.12 µM
  TGI: > 21.7 µM
[28]
  Ratio IC50: 8.2
[10]
  IC50: 0.98 µM
  TGI: 5.31 µM
[11]
  IC50: 0.97 µM
  TGI: 4.85 µM
[29]
  IC50: > 50 µM
[30]
  IC50: 1.18 µM
  TGI: 4.66 µM
[12]
  IC50: 2.13 µM
  TGI: 9.26 µM
[13]
  IC50: 2.74 µM
  TGI: 9.51 µM
[31]
  inhibition: 4%
[32]
  IC50: 1 µM
[14]
  IC50: 1.23 µM
  TGI: 5.82 µM
[15]
  IC50: 3.7 µM
  TGI: 12.4 µM
[33]
  IC50: 18.7 µM
[34]
  Activity: 8.5%
[16]
  IC50: 3.11 µM
  TGI: 7.65 µM
[35]
  Activity: 32.4%
[17]
  IC50: 2.61 µM
  TGI: 11.2 µM
[36]
  IC50: 1 µM
[18]
  IC50: 0.81 µM
  TGI: > 14.2 µM
[19]
  IC50: 3.16 µM
  TGI: 14.2 µM
[20]
  IC50: 1.64 µM
  TGI: 4.83 µM
[37]
  inhibition: 52%
[38]
  inhibition: 94%
[21]
  IC50: 1.33 µM
  TGI: 8.92 µM

## O=C(Nc1ccc(Cl)c(C(F)(F)F)c1)N1CCN(c2cc(-c3cn(-c4ccccc4)nc3-c3cccc(O)c3)ccn2)CC1
[1]
  IC50: 1.86 µM
  TGI: > 22 µM
[2]
  IC50: 6.28 µM
  TGI: > 22 µM
[3]
  IC50: 2.84 µM
  TGI: > 22 µM
[4]
  IC50: 0.93 µM
  TGI: 7.58 µM
[5]
  IC50: 2.77 µM
  TGI: 9.26 µM
[6]
  IC50: 4.77 µM
  TGI: 14.3 µM
[7]
  IC50: 4.78 µM
  TGI: > 22 µM
[8]
  IC50: 4.18 µM
  TGI: 19.4 µM
[9]
  IC50: 4.34 µM
  TGI: > 22 µM
[10]
  IC50: 3.39 µM
  TGI: 15.8 µM
[11]
  IC50: 2.42 µM
  TGI: 9.79 µM
[30]
  IC50: 1.03 µM
  TGI: 7.22 µM
[12]
  IC50: 4.72 µM
  TGI: > 22 µM
[13]
  IC50: 2.57 µM
  TGI: 19.6 µM
[14]
  IC50: 5.11 µM
  TGI: > 22 µM
[15]
  IC50: 5.86 µM
  TGI: > 22 µM
[16]
  IC50: 3.69 µM
  TGI: 14.9 µM
[17]
  IC50: 3.3 µM
  TGI: > 22 µM
[18]
  IC50: 2.13 µM
  TGI: > 22 µM
[19]
  IC50: 3 µM
  TGI: 17 µM
[20]
  IC50: 2.58 µM
  TGI: 5.45 µM
[38]
  inhibition: 14%
[21]
  IC50: 0.97 µM
  TGI: 17 µM
